We go through five compounds from PubChem BioAssay AID270 (DTP/NCI, 2004).

The assay concerns BDF1 mice, s.c. Lewis lung carcinoma, T/C %. Description: NCI In Vivo Anticancer Drug Screen. Data for tumor model Lewis Lung Carcinoma (subcutaneous) in B6D2F1 (BDF1) mice. The conditions noted are these: endpoint: median survival time, higher = longer survival. The method in brief: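 Readout: survival or tumor size, expressed as treated (T) over vehicle control (C). Transplantable tumor implanted in mice; compound given to the treated group.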

The mark [1] stands for this setting: dose: 50.0 mg/kg/injection, schedule: Q01DX009 (ip), vehicle: Klucel (hydroxypropylcellulose) (HPC).

“And” between values parts separate entries of the source, which are not always exact repeats. Equal entries are not always repeated. Records with an inconclusive call do not appear.

Consider `O=C(O)CC(NC(=O)CP(=O)(O)O)C(=O)O` (stereo not drawn), for which the T/C runs as follows: (dose: 12.5 mg/kg/injection, schedule: Q01DX009 (ip), vehicle: saline) 120 % of control and 121 % of control; (dose: 17.1 mg/kg/injection, schedule: Q01DX004 (ip), vehicle: saline) 120 % of control; (dose: 18.8 mg/kg/injection, schedule: Q01DX004 (ip), vehicle: saline) 124 % of control; (dose: 23.3 mg/kg/injection, schedule: Q01DX009 (ip), vehicle: saline) 121 % of control; (dose: 25.0 mg/kg/injection, schedule: Q01DX004 (ip), vehicle: saline) 226 % of control; (dose: 34.1 mg/kg/injection, schedule: Q01DX004 (ip), vehicle: saline) 178 % of control. The T/C (dose: 37.5 mg/kg/injection, schedule: Q01DX004 (ip), vehicle: saline) was 120 % of control; the T/C (dose: 38.9 mg/kg/injection, schedule: Q01DX004 (ip), vehicle: saline) was 123 % of control; the T/C (dose: 38.9 mg/kg/injection, schedule: Q01DX009 (oral), vehicle: saline) is 100 % of control; the T/C (dose: 50.0 mg/kg/injection, schedule: Q01DX004 (ip), vehicle: saline) is 225 % of control; the T/C (dose: 50.0 mg/kg/injection, schedule: Q01DX005 (ip), vehicle: saline) is 95 % of control; the T/C (dose: 64.0 mg/kg/injection, schedule: Q01DX004 (ip), vehicle: saline) was 108 % of control. In addition, the T/C by setting is: (dose: 64.8 mg/kg/injection, schedule: Q01DX004 (ip), vehicle: saline) 175 % of control and 197 % of control; (dose: 64.8 mg/kg/injection, schedule: Q01DX009 (ip), vehicle: saline) 167 % of control; (dose: 64.8 mg/kg/injection, schedule: Q01DX009 (oral), vehicle: saline) 103 % of control; (dose: 68.3 mg/kg/injection, schedule: Q01DX004 (ip), vehicle: saline) 247 % of control; (dose: 68.3 mg/kg/injection, schedule: Q01DX004 (ip), vehicle: suspension in saline) 112 % of control; (dose: 70.0 mg/kg/injection, schedule: Q01DX009 (oral), vehicle: saline) 122 % of control. In addition, the T/C is, setting by setting: (dose: 75.0 mg/kg/injection, schedule: Q01DX004 (ip), vehicle: saline) 247 % of control; (dose: 100.0 mg/kg/injection, schedule: Q01DX004 (ip), vehicle: saline) 226 % of control; (dose: 108.0 mg/kg/injection, schedule: Q01DX004 (ip), vehicle: saline) 197 % of control and 299 % of control; (dose: 108.0 mg/kg/injection, schedule: Q01DX009 (ip), vehicle: saline) 222 % of control; (dose: 108.0 mg/kg/injection, schedule: Q01DX009 (oral), vehicle: saline) 107 % of control; (dose: 108.0 mg/kg/injection, schedule: Q04DX004 (ip), vehicle: saline) 118 % of control. Also, the T/C (dose: 110.0 mg/kg/injection, schedule: Q01DX009 (oral), vehicle: saline) is 122 % of control; the T/C (dose: 116.0 mg/kg/injection, schedule: Q01DX009 (ip), vehicle: saline) was 181 % of control; the T/C (dose: 125.0 mg/kg/injection, schedule: Q01DX009 (ip), vehicle: saline) is 176 % of control and 194 % of control; the T/C (dose: 133.0 mg/kg/injection, schedule: Q01DX007 (other), vehicle: saline) is 206 % of control; the T/C (dose: 133.0 mg/kg/injection, schedule: Q01DX007 (sc), vehicle: saline) was 206 % of control; the T/C (dose: 136.0 mg/kg/injection, schedule: Q01DX004 (ip), vehicle: suspension in saline) was 204 % of control. Moreover, the T/C (dose: 136.5 mg/kg/injection, schedule: Q01DX004 (ip), vehicle: saline) was 248 % of control; the T/C (dose: 140.0 mg/kg/injection, schedule: Q01DX009 (ip), vehicle: saline) is 166 % of control; the T/C (dose: 150.0 mg/kg/injection, schedule: Q01DX004 (ip), vehicle: saline) was 248 % of control; the T/C (dose: 150.0 mg/kg/injection, schedule: Q01DX009 (ip), vehicle: saline) is 186 % of control; the T/C (dose: 160.0 mg/kg/injection, schedule: Q01DX009 (oral), vehicle: saline) was 119 % of control; the T/C (dose: 167.0 mg/kg/injection, schedule: Q01DX010 (ip), vehicle: saline) was 152 % of control. Also, the T/C (dose: 175.0 mg/kg/injection, schedule: Q01DX009 (ip), vehicle: saline) is 163 % of control; the T/C (dose: 178.0 mg/kg/injection, schedule: Q01DX009 (ip), vehicle: saline) was 178 % of control and 237 % of control; the T/C (dose: 180.0 mg/kg/injection, schedule: Q01DX009 (ip), vehicle: saline) is 159 % of control and 222 % of control; the T/C (dose: 180.0 mg/kg/injection, schedule: Q01DX009 (oral), vehicle: saline) is 102 % of control; the T/C (dose: 180.0 mg/kg/injection, schedule: Q04DX004 (ip), vehicle: saline) was 178 % of control; the T/C (dose: 200.0 mg/kg/injection, schedule: Q01DX004 (ip), vehicle: saline) is 226 % of control. Further, the T/C is, setting by setting: (dose: 200.0 mg/kg/injection, schedule: Q01DX005 (ip), vehicle: saline) 115 % of control; (dose: 200.0 mg/kg/injection, schedule: Q01DX007 (other), vehicle: saline) 206 % of control; (dose: 200.0 mg/kg/injection, schedule: Q01DX007 (sc), vehicle: saline) 206 % of control; (dose: 200.0 mg/kg/injection, schedule: Q01DX009 (ip), vehicle: saline) 225 % of control; (dose: 240.0 mg/kg/injection, schedule: Q04DX003 (ip), vehicle: saline) 150 % of control; (dose: 250.0 mg/kg/injection, schedule: Q01DX010 (ip), vehicle: saline) 158 % of control. The T/C reads like this: (dose: 265.0 mg/kg/injection, schedule: Q01DX009 (ip), vehicle: saline) 195 % of control; (dose: 273.0 mg/kg/injection, schedule: Q01DX004 (ip), vehicle: saline) 195 % of control; (dose: 273.0 mg/kg/injection, schedule: Q01DX004 (ip), vehicle: suspension in saline) 177 % of control; (dose: 300.0 mg/kg/injection, schedule: Q01DX007 (sc), vehicle: saline) 198 % of control; (dose: 300.0 mg/kg/injection, schedule: Q04DX004 (ip), vehicle: saline) 169 % of control; (dose: 343.0 mg/kg/injection, schedule: Q04DX003 (ip), vehicle: saline) 153 % of control and 186 % of control (2×). Moreover, the T/C by setting is: (dose: 375.0 mg/kg/injection, schedule: Q01DX010 (ip), vehicle: saline) 95 % of control; (dose: 400.0 mg/kg/injection, schedule: Q01DX004 (ip), vehicle: saline) 224 % of control; (dose: 490.0 mg/kg/injection, schedule: Q04DX003 (ip), vehicle: saline) 150 % of control and 186 % of control and 193 % of control; (dose: 500.0 mg/kg/injection, schedule: Q04DX004 (ip), vehicle: saline) 176 % of control; (dose: 833.0 mg/kg/injection, schedule: Q04DX004 (ip), vehicle: saline) 64 % of control; (dose: 50.0 ml/mouse/injection, schedule: Q01DX005 (ip), vehicle: saline) 94 % of control. Further, the T/C (dose: 200.0 ml/mouse/injection, schedule: Q01DX005 (ip), vehicle: saline) was 117 % of control.
For the compound `COc1cc(NS(C)(=O)=O)ccc1Nc1c2ccc(Cl)cc2nc2c(OC)cccc12`, the T/C (dose: 2.3 mg/kg/injection, schedule: Q01DX009 (ip), vehicle: other) was 118 % of control.
`Cc1cnc(/C=N\NC(N)=S)c2cccc(N)c12`: the T/C (dose: 6.25 mg/kg/injection, schedule: Q01DX009 (ip), vehicle: Klucel (hydroxypropylcellulose) (HPC)) was 112 % of control; the T/C (dose: 6.25 mg/kg/injection, schedule: Q01DX009 (ip), vehicle: saline with Tween-80) was 106 % of control; the T/C (dose: 12.5 mg/kg/injection, schedule: Q01DX009 (ip), vehicle: Klucel (hydroxypropylcellulose) (HPC)) is 90 % of control; the T/C (dose: 12.5 mg/kg/injection, schedule: Q01DX009 (ip), vehicle: saline with Tween-80) was 110 % of control; the T/C (dose: 25.0 mg/kg/injection, schedule: Q01DX009 (ip), vehicle: Klucel (hydroxypropylcellulose) (HPC)) is 86 % of control; the T/C (dose: 25.0 mg/kg/injection, schedule: Q01DX009 (ip), vehicle: saline with Tween-80) was 117 % of control. Besides, under setting [1], the T/C was 95 % of control.
Consider `C/C=C(\C)c1cc(=O)c2c(C)cc3c(c2o1)C(=O)c1c(O)c(C2CC(C)(N(C)C)C(O)C(C)O2)cc(C2CC(N(C)C)C(O)C(C)O2)c1C3=O` (stereo not drawn), for which the T/C by setting is: (dose: 0.5 mg/kg/injection, schedule: Q01DX009 (ip), vehicle: Klucel (hydroxypropylcellulose) (HPC)) 100 % of control; (dose: 2.0 mg/kg/injection, schedule: Q01DX009 (ip), vehicle: Klucel (hydroxypropylcellulose) (HPC)) 96 % of control.
For `C=C1C(=O)OC2CC(C)C3(O)CCC(C)(CC(OC(=O)C(C)C)C12)O3` (stereo not drawn), the T/C by setting is: under setting [1], 92 % of control; (dose: 100.0 mg/kg/injection, schedule: Q01DX009 (ip), vehicle: Klucel (hydroxypropylcellulose) (HPC)) 106 % of control.
